Test results published in PubChem BioAssay AID2060627 (Molecular Pharmacology Branch, DTP, NCI, 2025).
Several values for one entry are separate records, joined by “and”; a condition that tells them apart may be missing. Identical values can stand only once.

Tested on: 156681-154-R-J1-PDC complex spheroid viability
Test: Anticancer human tumor 156681-154-R-J1-PDC patient-derived melanoma cell line growth inhibition [CLK]
Details: for viability, T/C: stronger effect = lower value
Outline: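 Patient-derived tumor cells grown as complex spheroids with HUVEC endothelial cells and mesenchymal stem cells, treated with drug combinations. Concentrations descend in half-log steps from near clinical Cmax, or from 10 microM if Cmax unknown.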

[1] = curve of first compound, second compound 0.0316 µM
[2] = curve of first compound, second compound 0.1 µM
[3] = curve of first compound, second compound 0.316 µM
[4] = curve of first compound, second compound 1 µM
[5] = curve of first compound, second compound 3.16 µM
[6] = curve of first compound, second compound 10 µM
[7] = second compound 0.0316 µM, first compound 0.0316 µM
[8] = second compound 0.0316 µM, first compound 0.1 µM
[9] = second compound 0.0316 µM, first compound 0.316 µM
[10] = second compound 0.0316 µM, first compound 1 µM
[11] = second compound 0.1 µM, first compound 0.0316 µM
[12] = second compound 0.1 µM, first compound 0.1 µM
[13] = second compound 0.1 µM, first compound 0.316 µM
[14] = second compound 0.1 µM, first compound 1 µM
[15] = second compound 0.316 µM, first compound 0.0316 µM
[16] = second compound 0.316 µM, first compound 0.1 µM
[17] = second compound 0.316 µM, first compound 0.316 µM
[18] = second compound 0.316 µM, first compound 1 µM
[19] = second compound 1 µM, first compound 0.0316 µM
[20] = second compound 1 µM, first compound 0.1 µM
[21] = second compound 1 µM, first compound 0.316 µM
[22] = second compound 1 µM, first compound 1 µM
[23] = second compound 3.16 µM, first compound 0.0316 µM
[24] = second compound 3.16 µM, first compound 0.1 µM
[25] = second compound 3.16 µM, first compound 0.316 µM
[26] = second compound 3.16 µM, first compound 1 µM
[27] = second compound 10 µM, first compound 0.0316 µM
[28] = second compound 10 µM, first compound 0.1 µM
[29] = second compound 10 µM, first compound 0.316 µM
[30] = second compound 10 µM, first compound 1 µM
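Note: spheroids exposed to the agents for seven days.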
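Throughout, for viability, T/C: 100% = DMSO vehicle control viability.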

Which results are given for CCN1CCN(Cc2ccc(Nc3ncc(F)c(-c4cc(F)c5nc(C)n(C(C)C)c5c4)n3)nc2)CC1 + CN1CCN(c2cc(C(=O)Nc3cc4cc(-c5cnn(C)c5)ccc4cn3)ccn2)CC1?
IC50 [1]: 665 nM; IC50 [2]: 807 nM; IC50 [3]: < 3.16 nM; IC50 [4]: < 3.16 nM; IC50 [5]: < 3.16 nM; IC50 [6]: < 3.16 nM; viability, T/C (second compound 0.0316 µM, first compound 0.00316 µM): 97%; viability, T/C (second compound 0.0316 µM, first compound 0.01 µM): 94.9%; viability, T/C [7]: 87.5%; viability, T/C [8]: 77.6%; viability, T/C [9]: 71.8%; viability, T/C [10]: 39.1%; viability, T/C (second compound 0.1 µM, first compound 0.00316 µM): 96.2%; viability, T/C (second compound 0.1 µM, first compound 0.01 µM): 76.2%; viability, T/C [11]: 70.6%; viability, T/C [12]: 89.9%; viability, T/C [13]: 67.2%; viability, T/C [14]: 46.1%; viability, T/C (second compound 0.316 µM, first compound 0.00316 µM): 21.6%; viability, T/C (second compound 0.316 µM, first compound 0.01 µM): 21.1%; viability, T/C [15]: 17.8%; viability, T/C [16]: 23.1%; viability, T/C [17]: 18.7%; viability, T/C [18]: 9.12%; viability, T/C (second compound 1 µM, first compound 0.00316 µM): 0.15%; viability, T/C (second compound 1 µM, first compound 0.01 µM): 0.55%; viability, T/C [19]: 3.58%; viability, T/C [20]: 0.43%; viability, T/C [21]: 1.38%; viability, T/C [22]: 0.47%; viability, T/C (second compound 3.16 µM, first compound 0.00316 µM): 0.8%; viability, T/C (second compound 3.16 µM, first compound 0.01 µM): 1.88%; viability, T/C [23]: 0.12%; viability, T/C [24]: 1.66%; viability, T/C [25]: 2.74%; viability, T/C [26]: 1.56%; viability, T/C (second compound 10 µM, first compound 0.00316 µM): 0.1%; viability, T/C (second compound 10 µM, first compound 0.01 µM): 0.55%; viability, T/C [27]: 0.69%; viability, T/C [28]: 0.18%; viability, T/C [29]: 0.5%; viability, T/C [30]: 3.25%

How did the viability, T/C (compound 0.0316 µM) turn out when CC(=O)O[C@H]1C(=O)[C@@]2(C)[C@H]([C@H](OC(=O)c3ccccc3)[C@]3(O)C[C@H](OC(=O)[C@H](O)[C@@H](NC(=O)c4ccccc4)c4ccccc4)C(C)=C1C3(C)C)[C@]1(OC(C)=O)CO[C@@H]1C[C@@H]2O was run?
The viability, T/C was 19.9% and 16%.

And the viability, T/C (compound 0.1 µM)?
Its viability, T/C is 13.5% and 12.5%.

What about the viability, T/C (compound 0.316 µM) of the same compound?
Its viability, T/C is 14.8% and 14.5%.

What about the viability, T/C (compound 1 µM) of the same compound?
The viability, T/C was 23.2% and 18.2%.

And the viability, T/C (compound 3.16 µM)?
Its viability, T/C is 26.6% and 27.1%.

What about the viability, T/C (compound 10 µM) of the same compound?
The viability, T/C was 26.6% and 32.9%.

And the IC50 (curve of compound)?
The IC50 was less than 31.6 nM.

How did the IC50 [1] turn out when C#Cc1c(F)ccc2cc(O)cc(-c3ncc4c(N5CC6CCC(C5)N6)nc(OCC56CCCN5CC(F)C6)nc4c3F)c12 (stereo unspecified) + CNC(=O)c1ccc(Nc2nc(OC3CCCC3)c3c(-c4ccc5nc(C)oc5c4)c[nH]c3n2)c(OC)c1 was run?
The IC50 was greater than 10000 nM.

What about the IC50 [2] of the same compound?
The IC50 was greater than 10000 nM.

And the IC50 [3]?
Its IC50 is greater than 10000 nM.

And the IC50 [4]?
Its IC50 is 114 nM.

And the IC50 [5]?
The IC50 was less than 31.6 nM.

What about the IC50 [6] of the same compound?
The IC50 was less than 31.6 nM.

What about the viability, T/C [7] of the same compound?
The viability, T/C was 86%.

What about the viability, T/C [8] of the same compound?
The viability, T/C was 94.4%.

What about the viability, T/C [9] of the same compound?
Its viability, T/C is 104%.

And the viability, T/C [10]?
The viability, T/C was 109%.

What about the viability, T/C (second compound 0.0316 µM, first compound 3.16 µM) of the same compound?
Its viability, T/C is 113%.

And the viability, T/C (second compound 0.0316 µM, first compound 10 µM)?
The viability, T/C was 101%.

What about the viability, T/C [11] of the same compound?
The viability, T/C was 53.5%.

And the viability, T/C [12]?
The viability, T/C was 73.8%.

And the viability, T/C [13]?
Its viability, T/C is 60.3%.

And the viability, T/C [14]?
Its viability, T/C is 70%.

And the viability, T/C (second compound 0.1 µM, first compound 3.16 µM)?
Its viability, T/C is 73.6%.

And the viability, T/C (second compound 0.1 µM, first compound 10 µM)?
Its viability, T/C is 62.9%.

And the viability, T/C [15]?
Its viability, T/C is 62.4%.

And the viability, T/C [16]?
The viability, T/C was 48.6%.

And the viability, T/C [17]?
The viability, T/C was 66.4%.

And the viability, T/C [18]?
The viability, T/C was 65.9%.

And the viability, T/C (second compound 0.316 µM, first compound 3.16 µM)?
The viability, T/C was 67%.

And the viability, T/C (second compound 0.316 µM, first compound 10 µM)?
Its viability, T/C is 65.2%.

And the viability, T/C [19]?
Its viability, T/C is 43.2%.

And the viability, T/C [20]?
The viability, T/C was 53.5%.

And the viability, T/C [21]?
The viability, T/C was 47.9%.

What about the viability, T/C [22] of the same compound?
The viability, T/C was 56%.

What about the viability, T/C (second compound 1 µM, first compound 3.16 µM) of the same compound?
Its viability, T/C is 63.6%.

What about the viability, T/C (second compound 1 µM, first compound 10 µM) of the same compound?
Its viability, T/C is 31.6%.

And the viability, T/C [23]?
The viability, T/C was 54.5%.

What about the viability, T/C [24] of the same compound?
The viability, T/C was 49.8%.

What about the viability, T/C [25] of the same compound?
Its viability, T/C is 39.2%.

And the viability, T/C [26]?
Its viability, T/C is 49.8%.

And the viability, T/C (second compound 3.16 µM, first compound 3.16 µM)?
The viability, T/C was 50.4%.

What about the viability, T/C (second compound 3.16 µM, first compound 10 µM) of the same compound?
Its viability, T/C is 20.2%.

What about the viability, T/C [27] of the same compound?
Its viability, T/C is 45.7%.

And the viability, T/C [28]?
Its viability, T/C is 38.5%.

And the viability, T/C [29]?
The viability, T/C was 36.7%.

What about the viability, T/C [30] of the same compound?
The viability, T/C was 50%.

And the viability, T/C (second compound 10 µM, first compound 3.16 µM)?
Its viability, T/C is 43%.

And the viability, T/C (second compound 10 µM, first compound 10 µM)?
Its viability, T/C is 13.2%.
